Reference: patent US9610367B2, “Particle and contrast agent having the particle” (CANON KABUSHIKI KAISHA, priority 2010, dated 2017)
One block for each compound: values may come before it.

Tests used:
Type in all cases: physicochemical
[1] = dissolution of ICG in chloroform with lipids without a positively charged region; conditions: lipid without positively charged region used instead of DOPE
Excerpt: Instead of DOPE of Example 1, lipids (chemical formula 8, tristearin; chemical formula 9, triolein; chemical formula 10, ethyl stearate; chemical formula 11, β-carotene; and chemical formula 12, cholesterol acetate) without a positively charged region represented by the following chemical formulas 8 to 12 were used to prepare an ICG composition in the same manner as in Example 1. However, ICG was not dissolved in chloroform in any case, and a target polymer nanoparticle containing ICG could not be obtained.

[2] = stability of aqueous dispersion: absorbance at λmax over time at 4° C. in a dark place; conditions: at 48 hours; ICG dissolved in water
Experimental: To evaluate the stability of polymer nanoparticles, aqueous dispersions of PNP1 and PNP2 were allowed to stand at 4° C. in a dark place, and changes in the absorbance at λmax were measured over time. The results are illustrated in FIGS. 5 and 6. As a comparative example, changes with time in the absorbance at λmax of NPL 1 and in an ICG solution are illustrated in FIG. 5.
Changes in the absorbance of the aqueous dispersions of PNP4 to PNP6 at λmax were measured over time in the same manner as in Example 9. The results are illustrated in FIGS. 7 and 8. As a comparative example, changes with time in the absorbance at λmax of NPL 1 and in an ICG solution are illustrated in FIG. 7.
The PNP10 prepared in Example 13 was diluted with water, and the absorbance was measured over time with an absorption spectrometer (Perkin Elmer). The dispersion was shielded from a light except when measurement was performed and stored at 4° C. The measurement results are illustrated in FIG. 9.

[3] = solubility of ICG in dichloromethane when phospholipid was added; conditions: phospholipid not added; inferred from absorption curve integral values
Experimental: 2 molar equivalents of a phospholipid was added to 5.5 mg of ICG. As the phospholipid, DSPC or DOPE was used. Each of these ICG-phospholipid mixtures was dissolved in 2 mL of dichloromethane. Controls were prepared by dissolving in ICG in methanol or dichloromethane. All these ICG solutions were filtered with a filter having a pore size of 0.2 μm and then diluted 500-fold with dichloromethane.

Compound: CCCCCCCCCCCCCCCCCC(=O)OCC [ethyl stearate]
dissolution of ICG in chloroform [1]: not dissolved

Compound: CC(=O)O[C@H]1CC[C@@]2(C)C(=CC[C@H]3[C@@H]4CC[C@H]([C@H](C)CCCC(C)C)[C@@]4(C)CC[C@@H]32)C1 [cholesterol acetate]
dissolution of ICG in chloroform [1]: not dissolved

Compound: indocyanine green [ICG]
absorbance change rate at λmax [2]: 70% | ICG dissolved in dichloromethane [3]: approximately 0.6 mM

Continued, values first:

dissolution of ICG in chloroform [1]: not dissolved
Compound: CCCCCCCCCCCCCCCCCC(=O)OCC(COC(=O)CCCCCCCCCCCCCCCCC)OC(=O)CCCCCCCCCCCCCCCCC [tristearin]

dissolution of ICG in chloroform [1]: not dissolved
Compound: CCCCCCCC/C=C\CCCCCCCC(=O)OCC(COC(=O)CCCCCCC/C=C\CCCCCCCC)OC(=O)CCCCCCC/C=C\CCCCCCCC [triolein]
